The test system of data set [1] is LC-3 II and p62. The data set is described as follows: Western blotting of autophagy proteins LC-3 II and p62 in PC-3 cells. The data set is classed as cell-based, human. Particulars: 30 μM, 24 h. As for the experimental part: (§1) Figure 3. Western blotting analysis of (a) HDAC6 protein in PC-3 cells treated with various dimer compounds at 30 μM for 24 h, (b) Ac-α-tubulin protein in PC-3 cells treated with various dimer compounds at 30 μM for 24 h, (c) LC-3 I, LC-3 II, and p62 proteins in PC-3 cells treated with various dimer compounds at 30 μM for 24 h, (d) PARP-1 and Caspase-3 proteins in PC-3 cells treated with various dimer compounds at 30 μM for 24 h, (e) p-BUBR1^S670 and p-BUBR1^T680 proteins in PC-3 cells treated with various dimer compounds at 30 μM for 24 h. Glyceraldehyde 3-phosphate dehydrogenase (GAPDH) was used as the loading control.
(§2) After compound treatment, the cells were harvested and centrifuged. […] The supernatants quantified by Bio-Rad protein assay kit (Bio-Rad Laboratories, Hercules, CA) were mixed with sample buffer (0.3 M Tris pH6.8, 10% SDS, 50% glycerol, 10% β-mercaptoethanol, and 0.02% bromophenol blue) and heated at 95 °C for 10 min. The protein (30 µg) was separated by electrophoresis in 8% or 12% SDS-PAGE, transferred to PVDF membranes, and detected with specific antibodies (1:1000 dilution for the first and 1:7000 for the second antibodies). The immunoreactive proteins were detected with an enhanced chemiluminescence detection kit (Amersham, Buckinghamshire, UK) and the images were captured by ChemiDoc™ MP System (Bio-Rad Laboratories, Hercules, CA).
(In general: In western blotting, separated proteins are transferred to a membrane and probed.)

Data set [2] has as its system PC-3 cells. Kind of data set: Sulforhodamine B (SRB) assay, PC-3. The data set is classed as cell-based. Particulars: Homo sapiens; PC-3 cells, SRB, 48 h; read-out: GI50 con. ± SEM PC-3. As for the experimental part: (§3) The A549 and PC-3 human lung and prostate cancer cell lines were acquired from the American Type Culture Collection (Rockville, MD). […] The cultures were kept in a 37 °C incubator with 5% CO2. When the adherent cultures reached 80% confluence, they were passaged using 0.05% trypsin-EDTA. PC-3 and A549 cells were seeded into 96-well plates in RPMI medium with 5% (v/v) foetal bovine serum for 24 h. Cells in partial wells were fixed with 10% trichloroacetic acid (TCA) to represent the initial time of compound treatment. The cells were treated with or without the indicated compound for 48 h and then were fixed with 10% TCA. After the washout with ddH2O and air-dried, SRB at 0.4% (w/v) in 1% acetic acid was added for staining. Unbound SRB was washed with 1% acetic acid and SRB-bounded cells were solubilised with 10 mM Tris base. The absorbance was read at a wavelength of 515 nm for the determination of cell growth.
On the technique in general: In SRB staining, fixed cells bind dye roughly in proportion to their protein.

The target of data set [3] is T1, HDAC1 (Homo sapiens, UniProt Q13547).
T1 construct: purchased Reaction Biology Corporation (Malvern, PA)
T1 sequence (Q13547 whole entry): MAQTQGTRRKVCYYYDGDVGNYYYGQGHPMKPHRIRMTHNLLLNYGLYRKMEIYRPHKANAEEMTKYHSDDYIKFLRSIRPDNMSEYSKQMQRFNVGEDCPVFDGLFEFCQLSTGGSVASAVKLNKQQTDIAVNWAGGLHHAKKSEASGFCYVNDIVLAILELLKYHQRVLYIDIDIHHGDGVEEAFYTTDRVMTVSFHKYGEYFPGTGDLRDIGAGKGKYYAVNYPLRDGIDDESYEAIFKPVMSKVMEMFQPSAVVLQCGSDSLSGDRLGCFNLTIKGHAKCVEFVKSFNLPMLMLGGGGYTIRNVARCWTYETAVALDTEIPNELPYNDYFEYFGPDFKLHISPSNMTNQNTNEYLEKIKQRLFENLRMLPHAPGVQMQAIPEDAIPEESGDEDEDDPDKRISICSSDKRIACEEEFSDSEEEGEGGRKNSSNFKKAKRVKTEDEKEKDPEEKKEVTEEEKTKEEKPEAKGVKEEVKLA
Kind of data set: HDAC enzyme activity assay (Reaction Biology), HDAC1. In kind it is biochemical.

Data set [4] has as its system PARP-1 and Caspase-3. Kind of data set: Western blotting of apoptosis biomarkers PARP-1 and Caspase-3 in PC-3 cells. The data set is classed as cell-based, human. Particulars: 30 μM, 24 h. Here is the method:
as §1, §2

Data set [5] concerns the target T2, HDAC6 (Homo sapiens, UniProt Q9UBN7).
T2 sequence (Q9UBN7 1-1215): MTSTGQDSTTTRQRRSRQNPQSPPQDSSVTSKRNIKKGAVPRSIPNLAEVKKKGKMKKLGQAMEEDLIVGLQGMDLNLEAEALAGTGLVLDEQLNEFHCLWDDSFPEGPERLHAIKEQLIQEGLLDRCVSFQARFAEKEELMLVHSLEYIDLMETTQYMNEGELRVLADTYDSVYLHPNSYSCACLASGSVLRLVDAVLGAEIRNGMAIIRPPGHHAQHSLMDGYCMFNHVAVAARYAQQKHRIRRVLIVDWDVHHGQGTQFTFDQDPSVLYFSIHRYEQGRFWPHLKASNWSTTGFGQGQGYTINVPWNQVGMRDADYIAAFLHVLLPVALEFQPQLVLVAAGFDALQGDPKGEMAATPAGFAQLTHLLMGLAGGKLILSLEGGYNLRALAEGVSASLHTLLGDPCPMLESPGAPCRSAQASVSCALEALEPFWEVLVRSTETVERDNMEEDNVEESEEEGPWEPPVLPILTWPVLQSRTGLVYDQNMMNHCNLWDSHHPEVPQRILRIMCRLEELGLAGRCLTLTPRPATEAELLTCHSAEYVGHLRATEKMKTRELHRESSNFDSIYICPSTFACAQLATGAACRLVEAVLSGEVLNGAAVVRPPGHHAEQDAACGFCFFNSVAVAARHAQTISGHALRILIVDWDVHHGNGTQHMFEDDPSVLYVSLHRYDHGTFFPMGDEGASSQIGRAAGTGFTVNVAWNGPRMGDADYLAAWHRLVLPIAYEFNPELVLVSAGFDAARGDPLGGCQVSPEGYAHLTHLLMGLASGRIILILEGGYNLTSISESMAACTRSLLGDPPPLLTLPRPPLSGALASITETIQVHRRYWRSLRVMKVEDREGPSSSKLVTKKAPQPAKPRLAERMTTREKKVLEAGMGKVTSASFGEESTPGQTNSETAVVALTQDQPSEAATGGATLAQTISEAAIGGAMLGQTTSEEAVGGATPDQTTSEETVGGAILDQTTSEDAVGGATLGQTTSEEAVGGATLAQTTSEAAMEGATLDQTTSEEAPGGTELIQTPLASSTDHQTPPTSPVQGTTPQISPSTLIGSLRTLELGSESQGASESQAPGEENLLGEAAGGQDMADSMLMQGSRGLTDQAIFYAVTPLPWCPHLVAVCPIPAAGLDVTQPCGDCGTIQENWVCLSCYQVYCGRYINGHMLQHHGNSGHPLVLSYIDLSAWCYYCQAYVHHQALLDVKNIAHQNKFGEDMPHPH
Kind of data set: HDAC enzyme activity assay (Reaction Biology), HDAC6. The data set is classed as biochemical. Details: Full-length recombinant hHDAC 6 was expressed in a baculovirus expression system in SF9 cells; purchased Reaction Biology Corporation (Malvern, PA); host or cells: baculovirus / SF9 insect cells. Conditions: for IC50: full-length recombinant hHDAC 6, RHKKAc substrate 50 μM, 2 h at 30 °C. As for the experimental part: HDAC inhibition assays were performed by Reaction Biology Corporation (Malvern, PA). Full-length recombinant hHDAC 6 was expressed in a baculovirus expression system in SF9 cells. […] The reaction was stopped after 2 h at 30 °C . Trichostatin A was used as an internal control.

The target in data set [6] is T2, HDAC6. The data set is described as follows: Western blotting of HDAC6 protein (degradation) in PC-3 cells. The data set is classed as cell-based. Details: endogenous in cells; host or cells: PC-3 (ATCC). Particulars: 30 μM, 24 h. Here is the method:
as §1, §2

Data set [7] relates to A549 cells. Kind of data set: Sulforhodamine B (SRB) assay, A549. The data set is classed as cell-based. Conditions: Homo sapiens; A549 cells, SRB, 48 h; read-out: GI50 con. ± SEM A549. Here is the method:
as §3

Data set [8] can be described thus: Solubility as observed when conducting assays. In kind it is physicochemical.
For data set [9], the system named is Ac-α-tubulin. Kind of data set: Western blotting of Ac-α-tubulin in PC-3 cells. The data set is classed as cell-based, human. Particulars: 30 μM, 24 h. As for the experimental part:
as §1, §2

Entries after “also recorded” stand apart in the source; their conditions may differ. A value given as a limit tells only on which side of the number the result lay.

In the case of `O=C(NO)c1ccc(Cn2c(=O)n(CCOCCOCCOCCn3c(=O)c4ccccc4n(Cc4ccc(C(=O)NO)cc4)c3=O)c(=O)c3ccccc32)cc1` [Compound 8a, 4-{[3-(11-{1-[(4-Hydroxamophenyl)methyl]-2,4-dioxoquinazolin-3-yl}-3,6,9-trioxaundecyl)-2,4-dioxoquinazolin-1-yl]methyl}benzohydroxamic acid], the “autophagy induction (LC-3 II level, p62 expression)” value in data set [1] is reported as “strong autophagy induction”. Further, the concentration for 50% growth inhibition (GI50) – broadly, the concentration that inhibits growth by half – was 14.7 ± 1.3 µM in [2] and over 30 µM in data set [7]. The IC50 (usually the point on the concentration scale where inhibition reaches its midpoint) is 3.33 µM in [3] and 0.012 µM in data set [5]. For the same compound, the “apoptosis induction (PARP-1 cleavage, Caspase-3 activation)” value in [4] is on record as “induce apoptosis”. Moreover, the “HDAC1/6 Selectivity” value in [5] (ratio of HDAC1 IC50 to HDAC6 IC50) amounted to 273. Besides, the “HDAC6 degradation (Western blot)” value in [6] is recorded as “degradation of HDAC6 was observed; also recorded: induced HDAC6 auto-degradation”.

Consider `O=C(NO)c1ccc(Cn2c(=O)n(CCc3ccc(NCCOCCOCCOCCNc4ccc(CCn5c(=O)c6ccccc6n(Cc6ccc(C(=O)NO)cc6)c5=O)cc4)cc3)c(=O)c3ccccc32)cc1` [Compound 6a, 4-({3-[2-(4-{2-[2–(2-{2-[4-(2-{1-[(4-Hydroxamophenyl)methyl]-2,4-dioxoquinazolin-3-yl}ethyl)phenylamino]ethoxy}ethoxy)ethoxy]ethylamino}phenyl)ethyl]-2,4-dioxoquinazolin-1-yl}methyl)benzohydroxamic acid], for which, in data set [8], the “solubility observed when conducting assays” value is “poor solubilities”. In addition, the “Ac-α-tubulin level (Western blot)” value in [9] is “unenhanced acetylated α-tubulin”. Besides, the 50% growth inhibitory concentration (GI50) in [2] and in [7] was over 30 µM each time. Moreover, in data set [5], the IC50 was over 10 µM.
